# From ChEMBL document CHEMBL1143054, “Antimalarial linear lipopeptides from a Panamanian strain of the marine cyanobacterium Lyngbya majuscula” (J Nat Prod, 2007)
# Non-standard residues stand in square brackets, D forms with d. Residues, ends and D or L forms follow the SMILES beside them. *: point of attachment. NMeY = CN[C@@H](Cc1ccc(O)cc1)C(=O)O; NMeF = CN[C@@H](Cc1ccccc1)C(=O)O; NMeV = CN[C@H](C(=O)O)C(C)C; X1 = C#CCCCCC(C)CC(C)C(=O)*; X2 = C#CCCCC[C@H](C)C(=O)*; NMeA = CN[C@@H](C)C(=O)O
# Tests used:
# Vero = test: Cytotoxicity against Vero cells after 4 hrs; format: cell-based; conditions: Chlorocebus sabaeus
# Plasmodium falciparum = test: Antimalarial activity against chloroquine-resistant Plasmodium falciparum W2 by fluorimetry; format: functional, organism-based
Structure (SMILES),IC50 (Vero) [µM],IC50 (Plasmodium falciparum) [µM]
C#CCCCC[C@H](C)C(=O)N(C)[C@@H](Cc1ccccc1)C(=O)N[C@@H](C)C(=O)N(C)[C@@H](C)C(=O)N(C)[C@@H](Cc1ccc(OC)cc1)C(N)=O [DRAGOMABIN] (X2-[NMeF]A[NMeA][NMeY](Me)-NH2),182,21
C#CCCCCC(C)CC(C)C(=O)N(C)[C@@H](Cc1ccccc1)C(=O)N[C@@H](C)C(=O)N(C)[C@@H](C)C(=O)N(C)[C@@H](Cc1ccc(OC)cc1)C(N)=O (stereo partly specified) [CARMABIN A] (X1-[NMeF]A[NMeA][NMeY](Me)-NH2),9.8,1.4
C#CCCCC[C@H](C)C(=O)N(C)[C@H](C(=O)N(C)[C@H](C(=O)N(C)[C@H](C(=O)N(C)[C@@H](Cc1ccccc1)C(N)=O)C(C)C)C(C)C)C(C)C [DRAGONAMIDE A] (X2-[NMeV][NMeV][NMeV][NMeF]-NH2),67.8,10.7
